In PMC4457528, “Identification of Novel Small Molecule Inhibitors of Oncogenic RET Kinase” (PLoS ONE, 2015):

How the values were obtained:
Experiment in all cases: KinomeScan kinase panel, single concentration 10 µM
Assay type in all cases: binding
KinomeScan kinase panel [1] = target: T1, KinomeScan kinase panel (Homo sapiens, UniProt P54762); conditions: EPHB1, 10 µM; read-out: score (%)
T1 construct: purchased DiscoveRx (KinomeScan)
T1 sequence (P54762 18-984): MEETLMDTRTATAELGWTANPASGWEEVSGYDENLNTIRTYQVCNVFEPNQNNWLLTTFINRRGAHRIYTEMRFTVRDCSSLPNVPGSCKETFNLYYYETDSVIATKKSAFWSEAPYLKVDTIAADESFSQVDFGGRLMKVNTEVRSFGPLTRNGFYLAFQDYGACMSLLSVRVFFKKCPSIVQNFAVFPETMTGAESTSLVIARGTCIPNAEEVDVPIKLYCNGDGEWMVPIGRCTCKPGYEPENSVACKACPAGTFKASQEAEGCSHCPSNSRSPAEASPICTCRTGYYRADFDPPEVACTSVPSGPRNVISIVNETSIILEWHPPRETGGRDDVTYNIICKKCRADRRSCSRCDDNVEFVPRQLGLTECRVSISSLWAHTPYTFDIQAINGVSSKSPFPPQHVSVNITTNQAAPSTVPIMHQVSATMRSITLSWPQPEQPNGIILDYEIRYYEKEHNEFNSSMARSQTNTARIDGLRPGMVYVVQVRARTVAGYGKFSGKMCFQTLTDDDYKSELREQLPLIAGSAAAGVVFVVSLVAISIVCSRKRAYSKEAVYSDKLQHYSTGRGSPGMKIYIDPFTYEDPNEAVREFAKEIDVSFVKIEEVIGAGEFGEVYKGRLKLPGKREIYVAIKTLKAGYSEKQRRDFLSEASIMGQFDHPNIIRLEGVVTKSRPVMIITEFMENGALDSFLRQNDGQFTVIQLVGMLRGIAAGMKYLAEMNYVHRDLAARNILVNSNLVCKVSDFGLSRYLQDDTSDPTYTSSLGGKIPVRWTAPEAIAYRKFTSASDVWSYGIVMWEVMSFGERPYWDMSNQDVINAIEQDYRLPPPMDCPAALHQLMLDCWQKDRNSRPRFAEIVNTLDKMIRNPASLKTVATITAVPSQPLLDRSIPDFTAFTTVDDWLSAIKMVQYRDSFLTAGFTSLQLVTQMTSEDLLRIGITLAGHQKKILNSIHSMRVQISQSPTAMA

KinomeScan kinase panel [2] = target: T2, KinomeScan kinase panel (Homo sapiens, UniProt Q13557); conditions: CAMK2D, 10 µM; read-out: score (%)
T2 construct: purchased DiscoveRx (KinomeScan)
T2 sequence (Q13557 whole entry): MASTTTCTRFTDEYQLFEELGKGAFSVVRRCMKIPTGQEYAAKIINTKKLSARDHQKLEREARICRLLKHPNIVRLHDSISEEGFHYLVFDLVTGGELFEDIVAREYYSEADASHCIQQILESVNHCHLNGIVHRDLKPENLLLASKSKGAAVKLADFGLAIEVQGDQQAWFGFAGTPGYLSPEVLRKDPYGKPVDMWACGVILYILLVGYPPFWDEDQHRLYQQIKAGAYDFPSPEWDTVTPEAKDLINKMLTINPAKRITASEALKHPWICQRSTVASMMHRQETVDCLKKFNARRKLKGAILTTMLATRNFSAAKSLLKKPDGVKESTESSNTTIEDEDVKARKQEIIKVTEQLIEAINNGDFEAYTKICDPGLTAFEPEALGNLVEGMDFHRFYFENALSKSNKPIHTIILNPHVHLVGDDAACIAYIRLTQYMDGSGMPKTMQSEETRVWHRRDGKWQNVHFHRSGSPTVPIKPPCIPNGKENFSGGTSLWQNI

KinomeScan kinase panel [3] = target: T3, KinomeScan kinase panel (Homo sapiens, UniProt O14757); conditions: CHEK1, 10 µM
T3 construct: purchased DiscoveRx (KinomeScan)
T3 sequence (O14757 1-476): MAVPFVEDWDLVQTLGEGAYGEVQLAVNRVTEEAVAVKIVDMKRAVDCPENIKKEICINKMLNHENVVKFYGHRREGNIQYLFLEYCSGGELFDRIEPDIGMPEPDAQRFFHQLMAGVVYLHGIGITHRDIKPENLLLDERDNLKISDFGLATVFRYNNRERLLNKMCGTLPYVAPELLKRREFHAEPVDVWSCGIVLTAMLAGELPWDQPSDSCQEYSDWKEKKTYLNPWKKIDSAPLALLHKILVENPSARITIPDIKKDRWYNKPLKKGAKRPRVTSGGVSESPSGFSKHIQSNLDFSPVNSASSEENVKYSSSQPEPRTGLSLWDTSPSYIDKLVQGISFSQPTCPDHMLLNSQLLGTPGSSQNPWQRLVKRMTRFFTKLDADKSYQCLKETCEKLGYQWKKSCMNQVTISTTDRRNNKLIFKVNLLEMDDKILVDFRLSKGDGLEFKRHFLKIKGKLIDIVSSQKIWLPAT

KinomeScan kinase panel [4] = target: T4, KinomeScan kinase panel (Homo sapiens, UniProt O00238); conditions: BMPR1B, 10 µM; read-out: score (%)
T4 construct: purchased DiscoveRx (KinomeScan)
T4 sequence (O00238 14-502): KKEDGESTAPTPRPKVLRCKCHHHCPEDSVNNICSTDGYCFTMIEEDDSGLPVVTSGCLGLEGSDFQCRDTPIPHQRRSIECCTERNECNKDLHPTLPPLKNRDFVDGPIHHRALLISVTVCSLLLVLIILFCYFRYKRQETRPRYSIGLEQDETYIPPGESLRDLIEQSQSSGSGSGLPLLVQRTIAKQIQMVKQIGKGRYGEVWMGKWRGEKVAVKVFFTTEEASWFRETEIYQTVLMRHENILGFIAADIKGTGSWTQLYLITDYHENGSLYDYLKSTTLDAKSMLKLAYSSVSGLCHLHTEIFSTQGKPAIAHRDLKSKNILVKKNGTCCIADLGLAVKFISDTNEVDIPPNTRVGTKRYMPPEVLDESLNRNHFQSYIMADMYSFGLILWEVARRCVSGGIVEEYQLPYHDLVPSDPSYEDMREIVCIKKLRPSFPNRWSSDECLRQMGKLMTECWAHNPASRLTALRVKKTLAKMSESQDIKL

KinomeScan kinase panel [5] = target: T5, KinomeScan kinase panel (Homo sapiens, UniProt Q9HC98); conditions: NEK6, 10 µM; read-out: score (%)
T5 construct: purchased DiscoveRx (KinomeScan)
T5 sequence (Q9HC98 whole entry): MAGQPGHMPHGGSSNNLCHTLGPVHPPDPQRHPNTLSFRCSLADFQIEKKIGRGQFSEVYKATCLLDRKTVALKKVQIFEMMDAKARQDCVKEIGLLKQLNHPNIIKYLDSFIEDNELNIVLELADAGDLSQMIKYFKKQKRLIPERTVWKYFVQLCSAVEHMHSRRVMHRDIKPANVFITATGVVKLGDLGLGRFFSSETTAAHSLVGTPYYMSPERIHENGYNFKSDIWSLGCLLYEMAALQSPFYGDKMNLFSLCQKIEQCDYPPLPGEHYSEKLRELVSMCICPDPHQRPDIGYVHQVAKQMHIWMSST

KinomeScan kinase panel [6] = target: T6, KinomeScan kinase panel (Homo sapiens, UniProt P29323); conditions: EPHB2, 10 µM
T6 construct: purchased DiscoveRx (KinomeScan)
T6 sequence (P29323 19-1055): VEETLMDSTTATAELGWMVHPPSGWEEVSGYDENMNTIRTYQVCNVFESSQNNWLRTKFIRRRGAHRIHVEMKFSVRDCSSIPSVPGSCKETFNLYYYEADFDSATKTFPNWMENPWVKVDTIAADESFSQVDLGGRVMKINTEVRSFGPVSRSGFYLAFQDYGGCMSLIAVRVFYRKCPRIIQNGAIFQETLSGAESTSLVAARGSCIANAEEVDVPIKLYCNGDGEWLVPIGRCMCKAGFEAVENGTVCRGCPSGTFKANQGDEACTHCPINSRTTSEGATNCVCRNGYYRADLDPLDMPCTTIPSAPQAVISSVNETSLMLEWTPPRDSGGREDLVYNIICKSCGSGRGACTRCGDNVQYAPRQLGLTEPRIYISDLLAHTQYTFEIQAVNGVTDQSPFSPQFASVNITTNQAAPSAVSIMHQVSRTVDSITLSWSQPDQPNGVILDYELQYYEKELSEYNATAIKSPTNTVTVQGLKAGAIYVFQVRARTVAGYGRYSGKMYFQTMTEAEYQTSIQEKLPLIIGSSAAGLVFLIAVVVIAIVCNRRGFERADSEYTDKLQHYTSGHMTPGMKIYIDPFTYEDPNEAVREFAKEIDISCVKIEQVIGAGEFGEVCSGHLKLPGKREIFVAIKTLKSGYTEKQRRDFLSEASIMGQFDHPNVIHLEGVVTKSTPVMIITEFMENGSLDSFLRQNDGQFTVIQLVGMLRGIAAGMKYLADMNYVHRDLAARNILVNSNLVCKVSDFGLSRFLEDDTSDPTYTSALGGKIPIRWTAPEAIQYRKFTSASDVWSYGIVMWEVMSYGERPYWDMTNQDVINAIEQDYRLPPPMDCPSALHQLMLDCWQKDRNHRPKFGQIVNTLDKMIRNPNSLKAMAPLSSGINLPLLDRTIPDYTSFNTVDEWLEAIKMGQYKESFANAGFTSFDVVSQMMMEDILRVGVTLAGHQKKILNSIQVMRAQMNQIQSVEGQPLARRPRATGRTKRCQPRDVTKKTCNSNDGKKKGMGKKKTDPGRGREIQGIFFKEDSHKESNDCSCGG

KinomeScan kinase panel [7] = target: T7, KinomeScan kinase panel (Homo sapiens, UniProt P57059); conditions: 10 µM
T7 construct: purchased DiscoveRx (KinomeScan)
T7 sequence (P57059 whole entry): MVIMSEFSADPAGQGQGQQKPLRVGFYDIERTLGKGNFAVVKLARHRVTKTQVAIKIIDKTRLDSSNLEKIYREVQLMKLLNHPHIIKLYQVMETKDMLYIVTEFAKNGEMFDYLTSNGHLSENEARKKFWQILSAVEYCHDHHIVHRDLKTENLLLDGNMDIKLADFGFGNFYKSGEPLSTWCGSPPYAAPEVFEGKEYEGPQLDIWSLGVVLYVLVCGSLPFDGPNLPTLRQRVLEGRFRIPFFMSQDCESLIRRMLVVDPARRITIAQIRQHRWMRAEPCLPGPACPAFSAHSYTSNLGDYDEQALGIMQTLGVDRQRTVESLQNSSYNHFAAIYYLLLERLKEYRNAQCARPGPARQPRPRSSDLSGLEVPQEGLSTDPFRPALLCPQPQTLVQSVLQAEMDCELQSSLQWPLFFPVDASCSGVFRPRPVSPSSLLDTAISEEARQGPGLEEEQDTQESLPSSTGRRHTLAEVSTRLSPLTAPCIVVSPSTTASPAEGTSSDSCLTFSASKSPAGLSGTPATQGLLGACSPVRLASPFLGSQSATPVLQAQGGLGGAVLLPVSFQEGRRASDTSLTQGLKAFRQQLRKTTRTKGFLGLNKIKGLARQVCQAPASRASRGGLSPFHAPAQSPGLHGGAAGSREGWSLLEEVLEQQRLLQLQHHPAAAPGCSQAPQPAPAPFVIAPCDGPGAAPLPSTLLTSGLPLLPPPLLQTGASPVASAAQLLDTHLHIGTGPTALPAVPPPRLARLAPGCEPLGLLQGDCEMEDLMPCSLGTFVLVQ

KinomeScan kinase panel [8] = target: T8, KinomeScan kinase panel (Homo sapiens, UniProt P29376); conditions: LTK, 10 µM; read-out: score (%)
T8 construct: purchased DiscoveRx (KinomeScan)
T8 sequence (P29376 17-864): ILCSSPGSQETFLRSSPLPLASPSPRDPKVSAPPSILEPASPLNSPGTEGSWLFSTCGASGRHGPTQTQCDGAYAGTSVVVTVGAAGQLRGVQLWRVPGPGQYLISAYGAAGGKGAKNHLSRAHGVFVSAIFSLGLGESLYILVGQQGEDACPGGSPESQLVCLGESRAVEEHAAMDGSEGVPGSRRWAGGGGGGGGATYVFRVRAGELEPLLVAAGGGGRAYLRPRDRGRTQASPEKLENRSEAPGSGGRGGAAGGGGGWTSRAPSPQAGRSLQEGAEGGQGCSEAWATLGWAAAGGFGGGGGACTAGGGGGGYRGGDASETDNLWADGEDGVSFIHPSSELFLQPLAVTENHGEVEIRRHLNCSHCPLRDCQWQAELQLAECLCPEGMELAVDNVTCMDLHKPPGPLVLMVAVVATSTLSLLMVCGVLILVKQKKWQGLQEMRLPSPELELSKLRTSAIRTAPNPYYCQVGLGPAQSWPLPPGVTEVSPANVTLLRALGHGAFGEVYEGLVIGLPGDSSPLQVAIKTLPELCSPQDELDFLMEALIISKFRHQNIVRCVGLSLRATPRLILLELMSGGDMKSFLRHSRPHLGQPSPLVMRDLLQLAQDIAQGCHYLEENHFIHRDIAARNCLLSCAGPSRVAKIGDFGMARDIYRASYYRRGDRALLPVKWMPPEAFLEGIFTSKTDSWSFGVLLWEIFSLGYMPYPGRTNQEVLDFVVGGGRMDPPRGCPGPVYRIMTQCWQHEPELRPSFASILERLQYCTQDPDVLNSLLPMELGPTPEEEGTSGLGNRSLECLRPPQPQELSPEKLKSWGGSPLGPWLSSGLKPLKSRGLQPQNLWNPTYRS

KinomeScan kinase panel [9] = target: T9, KinomeScan kinase panel (Homo sapiens, UniProt P29317); conditions: EPHA2, 10 µM; read-out: score (%)
T9 construct: purchased DiscoveRx (KinomeScan)
T9 sequence (P29317 24-976): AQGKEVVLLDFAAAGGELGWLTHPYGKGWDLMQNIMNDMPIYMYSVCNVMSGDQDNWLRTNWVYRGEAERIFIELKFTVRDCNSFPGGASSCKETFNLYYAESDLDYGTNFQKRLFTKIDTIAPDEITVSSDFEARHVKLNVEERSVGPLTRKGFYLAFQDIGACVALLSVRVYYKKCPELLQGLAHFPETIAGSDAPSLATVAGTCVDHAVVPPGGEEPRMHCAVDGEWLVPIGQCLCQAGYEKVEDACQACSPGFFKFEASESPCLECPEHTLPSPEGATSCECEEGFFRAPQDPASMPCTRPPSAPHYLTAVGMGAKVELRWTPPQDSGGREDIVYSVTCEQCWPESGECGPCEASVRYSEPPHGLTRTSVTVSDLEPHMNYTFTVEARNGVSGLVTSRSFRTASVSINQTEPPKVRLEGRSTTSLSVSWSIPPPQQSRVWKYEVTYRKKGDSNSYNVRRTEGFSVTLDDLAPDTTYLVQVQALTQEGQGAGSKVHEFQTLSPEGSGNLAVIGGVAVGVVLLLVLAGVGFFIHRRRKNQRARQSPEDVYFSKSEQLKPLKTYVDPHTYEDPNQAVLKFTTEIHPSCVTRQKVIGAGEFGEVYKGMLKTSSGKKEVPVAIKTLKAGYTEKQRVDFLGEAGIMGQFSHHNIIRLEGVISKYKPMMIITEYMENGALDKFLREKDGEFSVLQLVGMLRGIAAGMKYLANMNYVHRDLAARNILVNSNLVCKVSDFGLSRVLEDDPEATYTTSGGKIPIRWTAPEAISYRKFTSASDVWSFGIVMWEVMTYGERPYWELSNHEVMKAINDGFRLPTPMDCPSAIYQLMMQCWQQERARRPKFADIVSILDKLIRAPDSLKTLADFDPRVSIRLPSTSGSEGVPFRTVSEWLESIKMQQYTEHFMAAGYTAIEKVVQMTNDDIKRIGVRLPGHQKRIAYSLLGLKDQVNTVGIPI

Compound	remaining binding at 10 µM (KinomeScan kinase panel [1])	remaining binding at 10 µM (KinomeScan kinase panel [2])	score (%) (KinomeScan kinase panel [3])	remaining binding at 10 µM (KinomeScan kinase panel [4])	remaining binding at 10 µM (KinomeScan kinase panel [5])	score (%) (KinomeScan kinase panel [6])	score (%) (KinomeScan kinase panel [7]; kinase SIK)	remaining binding at 10 µM (KinomeScan kinase panel [8])	remaining binding at 10 µM (KinomeScan kinase panel [9])	score (%) (KinomeScan kinase panel [7]; SNF1LK)
CCN1CCN(Cc2ccc(NC(=O)c3ccc(C)c(NC(=O)c4cncc(-c5cccs5)c4)c3)cc2C(F)(F)F)CC1 [ALW-II-41-27]	0.15%	> 30%	nb (Hits values higher than 30% were considered negative (no binding: nb))	> 30%	> 30%	0%	0.2%	> 30%	0.15%	–
CCN1CCN(Cc2ccc(NC(=O)c3ccc(C)c(/C=C/c4cnc5[nH]ccc5c4Cl)c3)cc2C(F)(F)F)CC1 [HG-6-63-01, (E)-3-(2-(4-chloro-1H-pyrrolo[2,3-b]pyridin-5-yl)vinyl)-N-(4-((4-ethylpiperazin-1-yl)methyl)-3-(trifluoromethyl)phenyl)-4-methylbenzamide]	0.7%	> 30%	25%	> 30%	> 30%	1.1%	–	> 30%	0.25%	0.3%
CCN1CCN(Cc2ccc(NC(=O)c3ccc(C)c(C#Cc4cccnc4)c3)cc2C(F)(F)F)CC1 [XMD15-44]	0.5%	> 30%	nb (Hits values higher than 30% were considered negative (no binding: nb))	> 30%	90%	0.1%	0.45%	4.5%	0.4%	–
